From paper PMC7884382, “A Phase 1 study of RO6870810, a novel bromodomain and extra-terminal protein inhibitor, in patients with NUT carcinoma, other solid tumours, or diffuse large B-cell lymphoma” (British Journal of Cancer, 2020)
Marks after values point to notes of the source that are not given here.

Legend:
[1] = RO6870810 plasma pharmacokinetics; assay type: in vivo, human
Experimental: The determination of RO6870810 PK was another secondary objective. RO6870810 plasma levels were measured during treatment and during the follow-up period. Venous blood samples were collected on multiple days during cycle 1 and on day 1 of subsequent cycles. Complete PK assessment parameters are included in the Supplementary Methods. Patients with sufficient data to determine PK parameters were included in the PK analysis population.
Formal hypothesis testing was not performed for this Phase 1 study. The sample size was based on a standard 3 + 3 dose-escalation design and was considered sufficient to evaluate the safety and clinical activity of RO6870810. AEs were coded using the current Medical Dictionary for Regulatory Activities, and safety and clinical efficacy were summarised using descriptive statistics. The 95% CI for the objective response rate was calculated using Wilson’s score method with continuity correction, and PFS was analysed using the Kaplan–Meier method. For the PK analyses, key exposure parameters such as maximum plasma concentration (Cmax) and area under the curve were summarised with descriptive statistics, and dose-exposure relationships were plotted graphically. Percentage changes in CD11b from baseline by flow cytometry were summarised with descriptive statistics and plotted over time. The relationship between percentage change from baseline in CD11b (average of three measurements taken pre-dose, at 2 h and at 4 h) on day 15 and the RO6870810 dose was plotted. To investigate the relationship between individual percentage changes in CD11b from baseline and RO6870810 concentration on day 15, the nonparametric regression LOESS curve fitting (locally weighted scatterplot smoothing) method was applied.
RO6870810 plasma concentrations were assessed in blood samples collected as follows:
Cycle 1, day 1: Blood samples were collected before and immediately after injection and 0.25, 0.5, 1, 2, 4, 6, 8, and 10 hours after the injection was completed
Cycle 1, day 2: Blood samples were collected 24 hours (pre-dose) and 28 hours (4 hours after receiving a second dose) after the injection on day 1 was completed
Cycle 1, day 8: A blood sample was drawn at the visit as a random value
Cycle 1, day 15: Blood samples were drawn before and immediately after injection and 0.25, 0.5, 1, 2, and 4 hours after the injection was completed
Cycle 1, day 22: Blood samples were drawn at the visit as a random value (28-day treatment cycle only)
Cycle X, day 1: On day 1 of all cycles after cycle 1, blood samples were drawn as a random value during the study visit
A blood sample was drawn as a random value during the end-of-treatment visit on early termination

solid tumours = test: Clinical activity in other solid tumours (RECIST v1.1); assay type: in vivo, human
From the text: Evaluation of the anticancer activity of RO6870810 was a secondary objective, as measured by time to first and best response, overall response rate, progression-free survival (PFS), duration of response and overall survival. […] Responders were defined as patients who achieved a confirmed CR or partial response (PR). PFS was defined as the time from the date of first study drug administration to the first date of objectively determined progressive disease (PD) or death from any cause. PFS was censored at the date of the most recent objective progression-free observation for patients who were still alive at the time of analysis and without evidence of tumour progression. For patients who received subsequent anticancer therapy prior to objective disease progression or death, PFS was censored at the date of the last objective progression-free observation prior to the date of subsequent therapy.

[2] = parameters: method as in NCT03068351; details: Phase 1 monotherapy in multiple myeloma, 0.3, 0.45 and 0.6 mg/kg, same schedule; ref NCT03068351; cited from earlier work
[3] = Solid tumours, % of n = 42 with non-missing best response
[4] = solid tumours, of 42 patients with non-missing data

Cc1sc2c(c1C)C(c1ccc(Cl)cc1)=N[C@@H](CC(=O)NCCCN1CCN(C)CC1)c1nnc(C)n1-2 [RO6870810]
Dose-exposure relationship (Cmax and area under the curve over 24 h) ([1]; 0.03-0.65 mg/kg, cycle 1, day 1): dose-proportional
Absorption ([1]; SC, across dose levels): rapid absorption
Time to Cmax ([1]; SC, days 1 and 15 of cycle 1): ≤ 1 h
Time to Cmax, median ([1]; SC, days 1 and 15 of cycle 1): 0.5 h
half-life ([1]; human, plasma, sc): ≥ 10 h
Clearance ([1]; in vivo): bodyweight dependent
Interpatient variability of Cmax ([1]; in vivo): 38%
Interpatient variability of area under the curve over 24 h ([1]; in vivo): 38%
Metabolites in plasma ([1]; leftover plasma samples screened): no metabolites were found
Complete response (solid tumours; Solid tumours (n = 47)): 0 n (%)
Median time to first response (min-max) (solid tumours; Solid tumours (n = 47)): 56.0 days
Missing response (no postbaseline tumour assessment) (solid tumours; Solid tumours (n = 47)): 5 n (%)
Unknown response (solid tumours; Solid tumours (n = 47)): 1 (2.4)^b n (%)
Partial response (solid tumours; [3]): 1 (2.4)^c n (%)
Progressive disease (solid tumours; [3]): 15 (35.7)^c n (%)
Stable disease (solid tumours; [3]): 25 (59.5)^c n (%)
Patients with PD as best response (solid tumours; adenocarcinoma pancreas): 1 n
Patients with PD as best response (solid tumours; breast cancer): 2 n
Patients with SD as best response (solid tumours; breast cancer): 2 n
Patients with PD as best response (solid tumours; colorectal cancer): 4 n
Patients with SD as best response (solid tumours; colorectal cancer): 5 n
Patients with an unknown response (solid tumours; colorectal cancer): a patient
Patients with PD as best response (solid tumours; endometrial cancer): 1 n
Patients with PD as best response (solid tumours; fallopian tube cancer): 1 n
Patients with PD as best response (solid tumours; gastrointestinal stromal tumour): 1 n
Patients with SD as best response (solid tumours; hepatic cancer): 1 n
Patients with PD as best response (solid tumours; non-small cell lung cancer): 1 n
Patients with SD as best response (solid tumours; non-small cell lung cancer): 1 n
Patients with SD as best response (solid tumours; oesophageal carcinoma): 1 n
Patients with PD as best response (solid tumours; ovarian cancer): 1 n
Patients with SD as best response (solid tumours; ovarian cancer): 2 n
Patients with PD as best response (solid tumours; pancreatic cancer): 1 n
Patients with SD as best response (solid tumours; pancreatic cancer): 1 n
Tumour reduction at nadir (solid tumours; patient with acinic cell carcinoma of the parotid gland): 46.8%
Tumour reduction at PR (solid tumours; patient with acinic cell carcinoma of the parotid gland, after two cycles, at 57 days): > 40%
Patients with PD as best response (solid tumours; poorly differentiated carcinoma of unknown origin): 1 n
Patients with SD as best response (solid tumours; prostate cancer): 7 n
Patients with PR as best response (solid tumours; salivary gland cancer): a patient
Patients with SD as best response (solid tumours; salivary gland cancer): 4 n
Median PFS (solid tumours; solid tumours, 47 patients): 90 days
PFS range (solid tumours; solid tumours, 47 patients): 9 to 315 days
Objective response rate (solid tumours; solid tumours, n = 1 of 47, 95% CI, 0%–13%): 2%
PD as best response (solid tumours; [4]): 36%
PR as best response (solid tumours; [4]): 2%
Patients with PD as best response (solid tumours; squamous cell carcinoma): 1 n
Patients with SD as best response (solid tumours; uterine cancer): 1 n
Grade 3–4 thrombocytopenia [2]: observed in a substantial proportion of patients
